Source: US11414402B2, “Sulfonamide-substituted cyanopyrrolidines with activity as DUB inhibitors” (MISSION THERAPEUTICS LIMITED, priority 2017, dated 2022)
Read-outs that look alike come from different tables or passages of the source.

What was measured:
UCHL1 = UCHL1 (Homo sapiens (Human), UniProt P09936); assay: UCHL1 biochemical IC50 assay (fluorescence polarisation)
Experimental: The UCHL1 construct was PCR amplified and cloned into a pFLAG-CMV-6a vector (Sigma-Aldrich) with an N-terminal FLAG tag. HEK293T cells were transfected with FLAG-UCHL1 using TransIT-LT1 transfection reagent (Mirus) according to the manufacturer's instructions. Cells were harvested 40 hours after transfection. […] The resin was washed two times with low salt buffer and one time with high salt buffer (20 mM Tris, pH 7.5, 500 mM NaCl, 0.5 mM EDTA, 5 mM beta-mercaptoethanol, protease inhibitors (complete mini, Roche) and phosphatase inhibitors (PhosSTOP mini, Roche). To elute the bound UCHL1, elution buffer (10 mM Tris, pH 7.5, 150 mM NaCl, 0.5 mM EDTA, 10% glycerol, 0.5% NP40, 5 mM beta-mercaptoethanol, 0.15 mg/ml 3× FLAG peptide (Sigma-Aldrich)) was added to the resin and incubated at 4° C. for 2.5 hours rotating. The resin was centrifuged at 4000 rpm for 30 seconds, and the supernatant containing purified FLAG-UCHL1 was removed and stored at −80° C.
UCHL1 was diluted in reaction buffer (20 mM Tris, pH 7.5, 100 mM NaCl, 0.05% Tween 20, 0.5 mg/ml BSA, 5 mM beta-mercaptoethanol) to the equivalent of 0, 0.01, 0.05, 0.1, 0.5, and 1 μl/well. Buffer was optimised for optimal temperature, pH, reducing agent, salts, time of incubation, and detergent. Reactions were initiated by the addition of 50 nM of TAMRA labelled peptide linked to ubiquitin via an iso-peptide bond as fluorescence polarisation substrate. Reactions were incubated at room temperature and read every 2 min for 120 min. Readings were performed on a Pherastar Plus (BMG Labtech). λ Excitation 540 nm; λ Emission 590 nm.
A typical 8-point dilution series to be 30, 10, 3, 1, 0.3, 0.1, 0.03, 0.01 μM final. […] Either 1 μl of 50% DMSO or diluted compound was added to the plate. UCHL1 was diluted in reaction buffer (20 mM Tris, pH 7.5, 100 mM NaCl, 0.05% Tween 20, 0.5 mg/ml BSA, 5 mM beta-mercaptoethanol) to the equivalent of 0.05 μl/well and 10 μl of diluted UCHL1 was added to the compound. Enzyme and compound were incubated for 30 min at room temp. Reactions were initiated by the addition of 50 nM of TAMRA labelled peptide linked to ubiquitin via an iso-peptide bond as fluorescence polarisation substrate. Reactions were read immediately after addition of substrate and following a 2-hour incubation at room temperature. Readings were performed on a Pherastar Plus (BMG Labtech). λ Excitation 540 nm; λ Emission 590 nm.

USP30 = USP30 (Homo sapiens (Human), UniProt Q70CQ3); assay: USP30 biochemical IC50 assay (fluorescence polarisation)
Sequence of USP30 (Q70CQ3 57-517): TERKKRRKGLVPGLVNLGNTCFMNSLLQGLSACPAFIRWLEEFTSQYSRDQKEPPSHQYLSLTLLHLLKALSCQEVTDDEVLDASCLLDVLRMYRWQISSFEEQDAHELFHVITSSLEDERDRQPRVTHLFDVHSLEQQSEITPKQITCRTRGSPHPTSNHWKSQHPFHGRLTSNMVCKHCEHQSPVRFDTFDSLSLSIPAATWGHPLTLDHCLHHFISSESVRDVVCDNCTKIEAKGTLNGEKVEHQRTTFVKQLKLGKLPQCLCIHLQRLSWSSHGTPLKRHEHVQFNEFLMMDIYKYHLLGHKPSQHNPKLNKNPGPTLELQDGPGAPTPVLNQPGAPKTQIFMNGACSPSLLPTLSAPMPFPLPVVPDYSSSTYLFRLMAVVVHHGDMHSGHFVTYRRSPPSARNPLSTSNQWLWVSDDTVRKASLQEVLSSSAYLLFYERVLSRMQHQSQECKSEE
Experimental: A typical 8-point dilution series would be 100, 30, 10, 3, 1, 0.3, 0.1, 0.03 μM final. […] Either 1 μl of 50% DMSO or diluted compound was added to the plate. USP30 was diluted in reaction buffer (40 mM Tris, pH 7.5, 0.005% Tween 20, 0.5 mg/ml BSA, 5 mM beta-mercaptoethanol) to the equivalent of 0.05 μl/well and 10 μl of diluted USP30 was added to the compound. Enzyme and compound were incubated for 30 min at room temp. Reactions were initiated by the addition of 50 nM of TAMRA labelled peptide linked to ubiquitin via an iso-peptide bond as fluorescence polarisation substrate. Reactions were read immediately after addition of substrate and following a 2-hour incubation at room temperature. Readings were performed on a Pherastar Plus (BMG Labtech). λ Excitation 540 nm; λ Emission 590 nm.

[1] = FLAG-UCHL1, 30 min preincubation at room temp, TAMRA-peptide-ubiquitin substrate 50 nM, read after 2-hour incubation, read-out: IC50 range
[2] = USP30 CD (57-517), 30 min preincubation at room temp, TAMRA-peptide-ubiquitin substrate 50 nM, read after 2-hour incubation, read-out: IC50 range

Sequence of UCHL1 (P09936 whole entry): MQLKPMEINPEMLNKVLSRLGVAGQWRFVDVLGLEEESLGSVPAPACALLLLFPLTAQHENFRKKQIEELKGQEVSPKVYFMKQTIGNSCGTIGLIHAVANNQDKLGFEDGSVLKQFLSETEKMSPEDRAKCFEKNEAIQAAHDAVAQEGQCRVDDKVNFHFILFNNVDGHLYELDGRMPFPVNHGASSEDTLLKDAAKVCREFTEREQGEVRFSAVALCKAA

| Structure (SMILES) | IC50 (UCHL1; [1]) | IC50 (USP30; [2]) | IC50 (UCHL1) | IC50 (USP30) |
| --- | --- | --- | --- | --- |
| CN(C1CCN(C#N)C1)S(=O)(=O)c1ccc(Oc2ccc(C(F)(F)F)cn2)cc1 (stereo not shown) [Example 25, N-(1-cyanopyrrolidin-3-yl)-N-methyl-4-((5-(trifluoromethyl)pyridin-2-yl)oxy)benzenesulfonamide] | 1000 to 10000 nM | 100 to 1000 nM | – | – |
| N#CN1CCC(S(=O)(=O)N2CCN(c3ccccn3)CC2)C1 (stereo not shown) [Example 28] | – | 100 to 1000 nM | – | – |
| N#CN1CCC(NS(=O)(=O)c2ccc(-c3ccncc3)cc2)C1 (stereo not shown) [Example 13, N-(1-cyanopyrrolidin-3-yl)-4-(pyridin-4-yl)benzenesulfonamide] | 1000 to 10000 nM | 100 to 1000 nM | – | – |
| N#CN1CCC(S(=O)(=O)N2CCC(Cc3ccccc3)CC2)C1 (stereo not shown) [Example 33, 3-((4-benzylpiperidin-1-yl)sulfonyl)pyrrolidine-1-carbonitrile] | – | 100 to 1000 nM | – | – |
| N#CN1CCC(NS(=O)(=O)c2ccc(N3CCCCC3)cc2)C1 (stereo not shown) [Example 14, N-(1-cyanopyrrolidin-3-yl)-4-(piperidin-1-yl)benzenesulfonamide] | 10000 to 100000 nM | 100 to 1000 nM | – | – |
| CN1CCN(c2ccc(S(=O)(=O)NC3CCN(C#N)C3)cc2)CC1 (stereo not shown) [Example 10, N-(1-cyanopyrrolidin-3-yl)-4-(4-methylpiperazin-1-yl)benzenesulfonamide] | – | 1000 to 10000 nM | – | – |
| N#CN1CC[C@@H](S(=O)(=O)N2CC(c3ccc(Cl)cc3)C2)C1 [Example 36, (R)-3-((3-(4-chlorophenyl)azetidin-1-yl)sulfonyl)pyrrolidine-1-carbonitrile] | – | 100 to 1000 nM | – | – |
| N#CN1CCC(NS(=O)(=O)c2ccc(OCc3ccccc3)cc2)C1 (stereo not shown) [Example 8] | 1000 to 10000 nM | 100 to 1000 nM | – | – |
| N#CN1C[C@H]2CCN(S(=O)(=O)c3ccc(-c4cccnc4)cc3)[C@H]2C1 [Example 21, (3aR,6aR)-1-((4-(pyridin-3-yl)phenyl)sulfonyl)hexahydropyrrolo[3,4-b]pyrrole-5(1H)-carbonitrile] | – | 100 to 1000 nM | – | – |
| N#CN1CC[C@H](S(=O)(=O)N2CC(c3ccc(Cl)cc3)C2)C1 [Example 35, (S)-3-((3-(4-chlorophenyl)azetidin-1-yl)sulfonyl)pyrrolidine-1-carbonitrile] | – | 100 to 1000 nM | – | – |
| N#CN1CCC(S(=O)(=O)N2CC(c3ccc(Cl)cc3)C2)C1 (stereo not shown) [Example 34, 3-((3-(4-chlorophenyl)azetidin-1-yl)sulfonyl)pyrrolidine-1-carbonitrile] | – | 100 to 1000 nM | – | – |
| Cn1nccc1C(=O)Nc1ccc(S(=O)(=O)NC2CCN(C#N)C2)cn1 (stereo not shown) [Example 24, N-(5-(N-(1-cyanopyrrolidin-3-yl)sulfamoyl)pyridin-2-yl)-1-methyl-1H-pyrazole-5-carboxamide] | 10000 to 100000 nM | 100 to 1000 nM | – | – |
| CN([C@@H]1CCN(C#N)C1)S(=O)(=O)c1ccc(-c2cccnc2)cc1 [Example 20, (R)—N-(1-cyanopyrrolidin-3-yl)-N-methyl-4-(pyridin-3-yl)benzenesulfonamide] | 1000 to 10000 nM | 100 to 1000 nM | – | – |
| Cc1ccc(S(=O)(=O)N2CCO[C@@H]3CN(C#N)C[C@H]32)cc1 (racemic) [Example 22, rac-(4aR,7aR)-4-tosylhexahydropyrrolo[3,4-b][1,4]oxazine-6(2H)-carbonitrile] | – | 10000 to 100000 nM | – | – |
| N#CN1CCC(S(=O)(=O)N2CCN(c3ncccn3)CC2)C1 (stereo not shown) [Example 29, 3-((4-(pyrimidin-2-yl)piperazin-1-yl)sulfonyl)pyrrolidine-1-carbonitrile] | – | 1000 to 10000 nM | – | – |
| Cc1ccc(CS(=O)(=O)N2CCO[C@H]3CN(C#N)C[C@H]32)cc1 (racemic) [Example 23, rac-(4aR,7aS)-4-(4-methylbenzyl)sulfonyl)hexahydropyrrolo[3,4-b][1,4]oxazine-6(2H)-carbonitrile] | – | 100 to 1000 nM | – | – |
| N#CN1CCC(S(=O)(=O)N2CCC(c3ccc(Cl)cc3)CC2)C1 (stereo not shown) [Example 30, 3-((4-(4-chlorophenyl)piperidin-1-yl)sulfonyl)pyrrolidine-1-carbonitrile] | – | < 100 nM | – | – |
| N#CN1CCC(NS(=O)(=O)c2ccc(Oc3ccc(C(F)(F)F)cn3)cc2)C1 (stereo not shown) [Example 19, N-(1-cyanopyrrolidin-3-yl)-4-((5-(trifluoromethyl)pyridin-2-yl)oxy)benzenesulfonamide] | 100 to 1000 nM | 100 to 1000 nM | – | – |
| N#CN1CCC(S(=O)(=O)N2CCN(c3ccc(F)cc3)CC2)C1 (stereo not shown) [Example 27, 3-((4-(4-fluorophenyl)piperazin-1-yl)sulfonyl)pyrrolidine-1-carbonitrile] | – | 10000 to 100000 nM | – | – |
| N#CN1CCC(S(=O)(=O)Nc2ccc(-c3ccccc3)cc2)C1 (stereo not shown) [Example 26, N-([1,1′-biphenyl]-4-yl)-1-cyanopyrrolidine-3-sulfonamide] | – | – | 10000 to 100000 nM | 100 to 1000 nM |
| N#CN1CCC(S(=O)(=O)N2CC(Oc3ccccc3)C2)C1 (stereo not shown) [Example 37, 3-((3-phenoxyazetidin-1-yl)sulfonyl)pyrrolidine-1-carbonitrile] | – | 10000 to 100000 nM | – | – |

Results, then the compound that gave them:

| IC50 (UCHL1; [1]) | IC50 (USP30; [2]) | IC50 (UCHL1) | IC50 (USP30) | Structure (SMILES) |
| --- | --- | --- | --- | --- |
| – | 1000 to 10000 nM | – | – | N#CN1CC[C@@H](NS(=O)(=O)c2ccccc2)C1 [Example 7, (R)-N-(1-cyanopyrrolidin-3-yl)benzenesulfonamide] |
| 1000 to 10000 nM | 100 to 1000 nM | – | – | N#CN1CCC(NS(=O)(=O)c2ccc(-c3cncnc3)cc2)C1 (stereo not shown) [Example 9, N-(1-cyanopyrrolidin-3-yl)-4-(pyrimidin-5-yl)benzenesulfonamide] |
| – | 1000 to 10000 nM | – | – | Cc1ccc(F)cc1S(=O)(=O)NC1CCN(C#N)C1 (stereo not shown) [Example 17, N-(1-cyanopyrrolidin-3-yl)-5-fluoro-2-methylbenzenesulfonamide] |
| 1000 to 10000 nM | 100 to 1000 nM | – | – | N#CN1CC[C@H](NS(=O)(=O)c2ccc(-c3ccccc3)cc2)C1 [Example 4, (S)-N-(1-cyanopyrrolidin-3-yl)-[1,1′-biphenyl]-4-sulfonamide] |
| 10000 to 100000 nM | 1000 to 10000 nM | – | – | CC(C)c1ccc(S(=O)(=O)NC2CCN(C#N)C2)cc1 (stereo not shown) [Example 18, N-(1-cyanopyrrolidin-3-yl)-4-isopropylbenzenesulfonamide] |
| 10000 to 100000 nM | 100 to 1000 nM | – | – | N#CN1CC[C@@H](NS(=O)(=O)c2ccc(-c3ccccc3)cc2)C1 [Example 3, (R)-N-(1-cyanopyrrolidin-3-yl)-[1,1′-biphenyl]-4-sulfonamide] |
| 10000 to 100000 nM | 100 to 1000 nM | – | – | N#CN1CCC(NS(=O)(=O)c2ccc(-c3ccccc3)cn2)C1 (stereo not shown) [Example 11, N-(1-cyanopyrrolidin-3-yl)-5-phenylpyridine-2-sulfonamide] |
| 1000 to 10000 nM | 100 to 1000 nM | – | – | N#CN1CCC(NS(=O)(=O)c2ccc(-c3ccccc3)cc2)C1 (stereo not shown) [Example 2, N-(1-cyanopyrrolidin-3-yl)-[1,1′-biphenyl]-4-sulfonamide] |
| 10000 to 100000 nM | 100 to 1000 nM | – | – | N#CN1CCC(NS(=O)(=O)c2ccccc2-c2ccccc2)C1 (stereo not shown) [Example 1, N-(1-cyanopyrrolidin-3-yl)-[1,1′-biphenyl]-2-sulfonamide] |
| 10000 to 100000 nM | – | – | – | N#CN1CCC(NS(=O)(=O)c2ccccc2)C1 (stereo not shown) [Example 5, N-(1-cyanopyrrolidin-3-yl)benzenesulfonamide] |
| 10000 to 100000 nM | 1000 to 10000 nM | – | – | N#CN1CC[C@H](NS(=O)(=O)c2ccccc2)C1 [Example 6, (S)-N-(1-cyanopyrrolidin-3-yl)benzenesulfonamide] |
| 1000 to 10000 nM | – | – | – | N#CN1CCC(NS(=O)(=O)c2ccc(-c3ccc(F)cc3)cc2)C1 (stereo not shown) [Example 12, N-(1-cyanopyrrolidin-3-yl)-4′-fluoro-[1,1′-biphenyl]-4-sulfonamide] |
